Assay results taken from article PMC5069662, “Transient Induced Molecular Electronic Spectroscopy (TIMES) for study of protein-ligand interactions” (Scientific Reports, 2016).

Target: T1, Thermolysin (Bacillus thermoproteolyticus, UniProt P00800)
T1 construct: gene npr
Experiment: TIMES (label-free, immobilization-free microfluidic electronic detection), […] Tris-HCl buffer pH […]
Format: binding
Conditions: read-out: Measured KD from TIMES

T1 sequence (P00800 233-548): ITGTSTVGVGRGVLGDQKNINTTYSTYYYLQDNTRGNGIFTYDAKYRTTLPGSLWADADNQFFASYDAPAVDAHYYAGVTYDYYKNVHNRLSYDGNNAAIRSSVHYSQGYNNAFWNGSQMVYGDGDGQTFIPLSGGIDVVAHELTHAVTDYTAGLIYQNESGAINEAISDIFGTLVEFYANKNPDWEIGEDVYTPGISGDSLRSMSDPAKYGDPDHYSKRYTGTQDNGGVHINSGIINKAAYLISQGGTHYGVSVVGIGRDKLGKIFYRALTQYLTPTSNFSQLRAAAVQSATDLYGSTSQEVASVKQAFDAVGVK

**Q.** Which Kd does the source give for `CC(C)C[C@H](NP(=O)(O)O[C@@H]1O[C@@H](C)[C@H](O)[C@@H](O)[C@H]1O)C(=O)N[C@@H](Cc1c[nH]c2ccccc12)C(=O)O` [phosphoramidon] here?
**A.** 32.1 ± 1.9 nM
